Our source for the IC50 values is patent US20110166152A1, “HETEROAROMATIC COMPOUNDS AS INHIBITORS OF STEAROYL-COENZYME A DELTA-9 DESATURASE” (priority 2008, published 2011).

pIC50: −log10 of the molar value.

For the assay, the target named is T1, human SCD1 (Homo sapiens, UniProt O00767).
T1 construct: made in house; host or cells: baculovirus/Sf9 insect cells
T1 sequence (O00767 1-359): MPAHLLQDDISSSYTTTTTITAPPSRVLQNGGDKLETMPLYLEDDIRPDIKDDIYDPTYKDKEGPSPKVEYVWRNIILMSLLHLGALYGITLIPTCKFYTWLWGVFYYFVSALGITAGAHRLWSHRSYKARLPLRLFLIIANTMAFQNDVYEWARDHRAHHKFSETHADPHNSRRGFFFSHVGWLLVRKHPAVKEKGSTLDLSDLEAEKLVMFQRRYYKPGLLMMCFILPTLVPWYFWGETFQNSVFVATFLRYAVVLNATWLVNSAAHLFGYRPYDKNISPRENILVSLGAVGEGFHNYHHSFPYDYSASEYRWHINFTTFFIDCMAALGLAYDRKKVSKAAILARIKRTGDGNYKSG
As to the kind of experiment: SCD enzyme activity assay, reconstituted human SCD1 ([3H]-stearoyl-CoA conversion). Format: biochemical. Conditions: read-out: IC50 hSCD-1. The protocol: The potency of compounds of formula I against the stearoyl-CoA desaturase was determined by measuring the conversion of radiolabeled stearoyl-CoA to oleoyl-CoA using rat liver microsome or human SCD1 following previously published procedures with some modifications (Joshi, et al., J. Lipid Res., 18: 32-36 (1977); Talamo, et al., Anal. Biochem, 29: 300-304 (1969)). Liver microsome was prepared from male Wistar or Sprague Dawley rats on a high carbohydrate diet for 3 days (LabDiet #5803, Purina). The livers were homogenized (1:10 w/v) in a buffer containing 250 mM sucrose, 1 mM EDTA, 5 mM DTT and 50 mM Tris-HCl (pH 7.5). After a 100,000×g centrifugation for 60 min, the liver microsome pellet was suspended in a buffer containing 100 mM sodium phosphate, 20% glycerol, 2 mM DTT, and stored at −78° C. Human SCD1 desaturase system was reconstituted using human SCD1 from a baculovirus/Sf9 expression system, cytochrome B5 and cytochrome B5 reductase. Typically, test compound in 2 μL DMSO was incubated for 15 min at room temperature with 180 μL of the SCD enzyme in a buffer containing 100 mM Tris-HCl (pH 7.5), ATP (5 mM), Coenzyme-A (0.1 mM), Triton X-100 (0.5 mM) and NADH (2 mM). The reaction was initiated by the addition of 20 μL of [^3H]-stearoyl-CoA (final concentration=2 μM, radioactivity concentration=1 μCi/mL). After 10 min, the reaction mixture (80 μL) was mixed with a calcium chloride/charcoal aqueous suspension (100 μL charcoal (10% w/v) plus 25 μL CaCl2 (2N). After centrifugation to precipitate the radioactive fatty acid species, tritiated water released from 9,10-[^3H]-stearoyl-CoA by the SCD enzyme was quantified on a scintillation counter.
For `Oc1cnc2nc(-c3cn(Cc4cc(Cl)c(Cl)c(Cl)c4)nn3)sc2n1`, the negative-log IC50 (pIC50) is 7.32.

As for `O=C(O)c1ccc2nc(-c3cn(Cc4cc(Br)c(Br)c(Br)c4)nn3)sc2c1`, the pIC50 was 7.85. For `OCc1ccn2cc(-c3cn(Cc4cc(Cl)c(Cl)c(Cl)c4)nn3)nc2c1`, the pIC50 is 7.41. In the case of `CCOC(=O)Nc1nc2ncc(-c3cn(Cc4cc(Br)c(Br)c(Br)c4)nn3)nc2s1` it was 7.80; in that of `O=C(O)CNc1nc2cnc(-c3cn(Cc4cc(Cl)c(Cl)c(Cl)c4)nn3)nc2s1`, 7.51.
